# Data taken from patent US20240366598A1, “GLUCOSE-DEPENDENT INSULINOTROPIC POLYPEPTIDE RECEPTOR ANTAGONISTS AND USES THEREOF” (Pfizer Inc., priority 2023, published 2024).
# Counter-ions that a name gives are not always drawn.
# Biological target: T1, human Glucose-dependent Insulinotropic Polypeptide Receptor (hGIPR) (Homo sapiens, UniProt P48546)
# T1 sequence (P48546 22-466): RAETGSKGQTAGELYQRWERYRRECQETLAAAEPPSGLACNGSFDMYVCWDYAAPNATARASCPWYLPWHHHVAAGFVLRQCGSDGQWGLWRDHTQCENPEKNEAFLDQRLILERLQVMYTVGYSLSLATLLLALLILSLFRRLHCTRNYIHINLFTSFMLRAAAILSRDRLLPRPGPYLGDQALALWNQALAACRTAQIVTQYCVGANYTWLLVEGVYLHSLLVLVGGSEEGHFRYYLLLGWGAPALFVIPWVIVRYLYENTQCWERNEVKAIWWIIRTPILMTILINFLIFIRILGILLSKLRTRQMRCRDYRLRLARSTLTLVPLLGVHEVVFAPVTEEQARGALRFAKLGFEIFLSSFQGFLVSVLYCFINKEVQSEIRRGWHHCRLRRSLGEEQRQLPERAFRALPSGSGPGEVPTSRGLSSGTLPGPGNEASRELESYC
# Test: Functional in vitro GIPR antagonist potency assay (cAMP HTRF, CHO-K1 cells stably expressing hGIPR, hGIP stimulation at about EC80)
# Assay type: cell-based
# Conditions: geometric mean, hGIP at estimated EC80, examples marked ^2: overall geometric mean of multiple forms (including salts) tested
# Protocol: Example AA. Functional In Vitro GIPR Antagonist Potency Assay
# The functional in vitro antagonist potency for test compounds was determined by monitoring intracellular cyclic adenosine monophosphate (cAMP) levels in Chinese hamster ovary (CHO)—K1 cells stably expressing the human Glucose-dependent Insulinotropic Polypeptide Receptor (hGIPR). Following agonist activation, hGIPR associates with the G-protein complex causing the Gαs subunit to exchange bound guanosine diphosphate (GDP) for guanosine triphosphate (GTP), followed by dissociation of the Gαs-GTP complex. The activated Gas subunit can couple to downstream effectors to regulate the levels of second messengers or cAMP within the cell. Thereby, determination of intracellular cAMP levels allows for pharmacological characterization. Intracellular cAMP levels are quantitated using a homogenous assay utilizing the Homogeneous Time Resolved Fluorescence (HTRF) technology from Perkin Elmer. […] The two entities compete for binding to a monoclonal anti-cAMP antibody labeled with cryptate. The specific signal is inversely proportional to the concentration of cAMP in the cells.
# Test compounds were solubilized to a concentration of 30 mM in 100% dimethyl sulfoxide (DMSO). An 11-point dilution series using 1 in 3.162-fold serial dilutions was created in 100% DMSO with a top concentration of 8 mM. The serially diluted compound was spotted with an Echo Acoustic liquid handler (Beckman Coulter) into a 384-well assay plate (Corning, Cat No. 3824) at 50 nL/well with duplicate points at each concentration, at a 200× final assay concentration (FAC). The final compound concentration range in the assay was 40 μM to […], with a final DMSO concentration of 0.5%.
# Frozen assay-ready vials (at 1×10^7 cells/vial) of CHO-K1 cells stably expressing the Gs-coupled human GIPR receptor (Eurofins, DiscoverX, Cat No. 95-0146C2) were thawed, counted, and resuspended in assay buffer consisting of Hank's Balanced Salt Solution (HBSS, Lonza Cat No. 10-527) containing 20 mM (4-(2-hydroxyethyl)-1-piperazineethanesulfonic acid (HEPES, Lonza, Cat No. 17-737E), 0.1% bovine serum albumin (BSA, Sigma, Cat No. A7979), and 200 μM 3-isobutyl-1-methylxanthine (IBMX, Sigma, Cat No. 15879) at a density of 4×10^5 cells/mL. Cells were added to assay plate (5 μL/well of 4×10^5 cells/mL stock for 2,000 cells/well final) containing 50 nL of 200× FAC test compound, and incubated at 37° C. (95% O2: 5% CO2) for 2 hours, with micro-clime lids (Labcyte, Cat No. LLS-0310). Following the 2-hour cell and compound incubation, a stimulation mix comprised of hGIPR agonist human glucose-dependent insulinotropic polypeptide (hGIP, full length, Sigma Cat No. G2269) in assay buffer/0.1% DMSO was added to the assay plate (5 μL/well) at an estimated EC80 FAC (based on previous hGIP agonist curves) and incubated for another 30 minutes with micro-clime lids at 37° C. (95% O2: 5% CO2), after which intracellular cAMP levels were quantified as per Perkin Elmer's protocol (5 μL of d2 and then 5 μL cryptate, incubated for 1 hour at room temperature). Emission spectra of samples were measured on a Pherastar plate reader (BMG Labtech Inc) using a HTRF protocol (excitation, 320 nm; emission, 665 nm/620 nm).
# (95% O2: 5% CO2), with a micro-clime lid. Following the 2-hour cell and DMSO incubation, a hGIP concentration response curve at 2× FAC (12-point curve using 1 in 3 serial dilutions, with triplicate points at each concentration, 100 nM final top concentration) in assay buffer/1% DMSO was added (5 μL/well) and incubated for a further 30 minutes with a micro-clime lid at 37° C. (95% O2: 5% CO2), after which intracellular cAMP levels were quantified and samples measured as described previously. Experiments passed quality control if the agonist concentration used for stimulation fell between the on-the-day EC50-EC90. […]
row,SMILES,IC50
1,"COc1cc(C(=O)O)ccc1-c1ccc(NC(=O)[C@H]2CCCN2C(=O)Nc2ccc(C(C)C)cc2)nc1 [Example 151, 3-methoxy-4-{6-[(1-{[4-(propan-2-yl)phenyl]carbamoyl}-D-prolyl)amino]pyridin-3-yl}benzoic acid]",110 nM
2,"CC(C)c1ccc(NC(=O)N2CCC[C@@H]2C(=O)Nc2ccc(-c3ccc(C(=O)O)cc3)cn2)cc1F [Example 207, 4-{6-[(1-{[3-fluoro-4-(propan-2-yl)phenyl]carbamoyl}-D-prolyl)amino]pyridin-3-yl}benzoic acid]",1.3 nM
3,"CC[C@H]1CCN(C(=O)Nc2ccc(C(C)C)cc2)[C@H]1C(=O)Nc1ccc(-c2ccc(C(=O)O)cc2)cc1 (single isomer, unassigned) [Example 165, 4′-{[(3R)-3-ethyl-1-{[4-(propan-2-yl)phenyl]carbamoyl}-L-prolyl]amino}[1,1′-biphenyl]-4-carboxylic acid or 4′-{[(3S)-3-ethyl-1-{[4-(propan-2-yl)phenyl]carbamoyl}-D-prolyl]amino}[1,1′-biphenyl]-4-carboxylic acid]",4.6 nM
4,"CC(C)c1ccc(NC(=O)N2C[C@H]3C[C@H]3[C@@H]2C(=O)Nc2ccc(-c3cccc(C(=O)O)c3)cc2)cc1 [Example 154, 4′-{[(1R,2R,5S)-3-{[4-(propan-2-yl)phenyl]carbamoyl}-3-azabicyclo[3.1.0]hexane-2-carbonyl]amino}[1,1′-biphenyl]-3-carboxylic acid]",58 nM
5,"Cc1cc(NC(=O)N2CCC[C@@H]2C(=O)Nc2ccc(-c3ccc(C(=O)O)nc3C)cc2)ccc1C(F)(F)F [Example 167, 6-methyl-5-{4-[(1-{[3-methyl-4-(trifluoromethyl)phenyl]carbamoyl}-D-prolyl)amino]phenyl}pyridine-2-carboxylic acid]",7.2 nM
6,"O=C(O)c1ccc(-c2ccc(NC(=O)[C@H]3CCCN3C(=O)Nc3cccc(Cl)c3)cc2)cc1 [Example 74, 4′-({1-[(3-chlorophenyl)carbamoyl]-D-prolyl}amino)[1,1′-biphenyl]-4-carboxylic acid]",82 nM
7,"O=C(O)c1ccc(-c2ccc(NC(=O)[C@H]3CCCN3C(=O)Nc3ccc(C4CCC4)cc3)nc2)cc1 [Example 210, 4-[6-({1-[(4-cyclobutylphenyl)carbamoyl]-D-prolyl}amino)pyridin-3-yl]benzoic acid]",9.3 nM
8,"Cc1cc(NC(=O)[C@H]2CCCN2C(=O)Nc2ccc(C(C)C)cc2)cnc1-c1ccc(C(=O)O)cc1 [Example 150, 4-{3-methyl-5-[(1-{[4-(propan-2-yl)phenyl]carbamoyl}-D-prolyl)amino]pyridin-2-yl}benzoic acid]",86 nM
9,"COc1cc(C(F)(F)F)ccc1NC(=O)N1CCC[C@@H]1C(=O)Nc1ccc(-c2ccc(C(=O)O)cc2)cc1 [Example 134, 4′-[(1-{[2-methoxy-4-(trifluoromethyl)phenyl]carbamoyl}-D-prolyl)amino][1,1′-biphenyl]-4-carboxylic acid]",140 nM
10,"Cc1cc(NC(=O)N2CCC[C@@H]2C(=O)Nc2ccc(-c3ccc(C(=O)O)cc3)cn2)ccc1C(F)(F)F [Example 177, 4-{6-[(1-{[3-methyl-4-(trifluoromethyl)phenyl]carbamoyl}-D-prolyl)amino]pyridin-3-yl}benzoic acid]",8.2 nM
11,"Cc1cc(-c2ccc(NC(=O)[C@H]3CCCN3C(=O)Nc3ccc(C(C)C)cc3)cc2)c(F)cc1C(=O)O [Example 86, 2-fluoro-5-methyl-4′-[(1-{[4-(propan-2-yl)phenyl]carbamoyl}-D-prolyl)amino][1,1′-biphenyl]-4-carboxylic acid]",7.5 nM
12,"Cc1c(C(=O)O)ccc(-c2ccc(NC(=O)[C@H]3CCCN3C(=O)Nc3ccc(C(C)C)cc3)cc2)c1F [Example 87, 2-fluoro-3-methyl-4′-[(1-{[4-(propan-2-yl)phenyl]carbamoyl}-D-prolyl)amino][1,1′-biphenyl]-4-carboxylic acid]",11 nM
13,"COc1cc(C(=O)O)c(F)cc1-c1ccc(NC(=O)[C@H]2CCCN2C(=O)Nc2ccc(C(C)C)cc2)cc1 [Example 81, 5-fluoro-2-methoxy-4′-[(1-{[4-(propan-2-yl)phenyl]carbamoyl}-D-prolyl)amino][1,1′-biphenyl]-4-carboxylic acid]",210 nM
14,"O=C(O)c1ccc(-c2ccc(NC(=O)[C@H]3CCCN3C(=O)Nc3ccc(Cl)cc3Cl)cc2)cc1 [Example 103, 4′-({1-[(2,4-dichlorophenyl)carbamoyl]-D-prolyl}amino)[1,1′-biphenyl]-4-carboxylic acid]",29 nM
15,"Cc1cc(C(=O)O)cc(-c2ccc(NC(=O)[C@H]3CCCN3C(=O)Nc3ccc(C(C)C)cc3)cc2)c1 [Example 50, 5-methyl-4′-[(1-{[4-(propan-2-yl)phenyl]carbamoyl}-D-prolyl)amino][1,1′-biphenyl]-3-carboxylic acid]",83 nM
16,"CC(C)(C)c1ccc(CNC(=O)N2CCC[C@@H]2C(=O)Nc2ccc(-c3ccc(C(=O)O)cc3)cc2)cc1 [Example 125, 4′-[(1-{[(4-tert-butylphenyl)methyl]carbamoyl}-D-prolyl)amino][1,1′-biphenyl]-4-carboxylic acid]",19 nM
17,"CC[C@@H]1CCN(C(=O)Nc2ccc(C(C)C)cc2)[C@H]1C(=O)Nc1ccc(-c2ccc(C(=O)O)cc2)cc1 (single isomer, unassigned) [Example 166, 4′-{[(3R)-3-ethyl-1-{[4-(propan-2-yl)phenyl]carbamoyl}-D-prolyl]amino}[1,1′-biphenyl]-4-carboxylic acid or 4′-{[(3S)-3-ethyl-1-{[4-(propan-2-yl)phenyl]carbamoyl}-L-prolyl]amino}[1,1′-biphenyl]-4-carboxylic acid]",5.7 nM
18,"CC(C)c1ccc(NC(=O)N2CCC[C@@H]2C(=O)Nc2ccc3c(n2)CC[C@@H](C(=O)O)C3)cc1F (single isomer, unassigned) [Example 229, 2-[(1-{[3-fluoro-4-(propan-2-yl)phenyl]carbamoyl}-D-prolyl)amino]-5,6,7,8-tetrahydroquinoline-6-carboxylic acid, trifluoroacetate salt, DIAST-2]",11 nM
19,"O=C(O)c1ccc(-c2ccc(NC(=O)[C@H]3CCCN3C(=O)NCc3ccc(C(F)F)cc3)cc2)cc1 [Example 141, 4′-{[1-({[4-(difluoromethyl)phenyl]methyl}carbamoyl)-D-prolyl]amino}[1,1′-biphenyl]-4-carboxylic acid]",97 nM
20,"CCc1cc(-c2ccc(NC(=O)[C@H]3CCCN3C(=O)Nc3ccc(C(C)C)cc3)cc2)ccc1C(=O)O [Example 95, 3-ethyl-4′-[(1-{[4-(propan-2-yl)phenyl]carbamoyl}-D-prolyl)amino][1,1′-biphenyl]-4-carboxylic acid]",13 nM
